Experimental findings from the METLIN SMRT retention time set (Domingo-Almenara et al. 2019) are described below.

The nature of this series: gradient 5% acetonitrile 3 min, to 50% in 2 min, to 85% in 15 min, held 3 min, 100 µL/min. The settings on record: column: Zorbax Extend-C18 2.1 x 50 mm; eluents: water / acetonitrile, 0.1% formic acid. In short, it runs like this:
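Mixtures of ~100 pure standards were chromatographed on a Zorbax Extend-C18 column (2.1 × 50 mm, 1.8 μm) at 100 μL/min using water and acetonitrile, each with 0.1% formic acid. Detection used a quadrupole time-of-flight mass spectrometer in positive and negative ionization mode, and data collection spanned 3 months. Retention time was obtained from adduct peaks picked computationally and each checked manually.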
In turn, `O=C(CCn1cnc2c(cnn2-c2ccccc2)c1=O)Nc1ccc2c(c1)OCCO2` registered an RP-LC retention time of 754 s.

For `O=C(NCc1cccc(Br)c1)c1cn2nc(Cl)ccc2n1`, the RP-LC retention time turned out to be 867 s.

Turning to `COc1ccccc1-c1nc(Cn2nnc(-c3nc(-c4ccc(Cl)cc4)no3)c2C)c(C)o1`, the RP-LC retention time was 1220 s.

With `COCCn1cc(CC(=O)NC2CCCCC2)c2cccnc21`, the RP-LC retention time amounted to 700 s. To `CCOc1ccc(NC(=O)CCc2cccc3[nH]ccc23)cc1` belongs 875 s. To `Cc1[nH]nc(-c2cc(S(=O)(=O)NCC(C)c3ccccc3)c(C)s2)c1C` (configuration not stated) belongs 936 s.

In turn, `COc1ccc(C2(C(=O)Nc3cc(-c4ccsc4)no3)CC2)cc1` displayed an RP-LC retention time of 1030 s. Regarding `COc1ccc(N2CC(c3nc(-c4ccccc4)no3)CC2=O)cc1Cl` (configuration not stated), the RP-LC retention time worked out at 973 s.

In the case of `CCC(=O)Nc1c(C)noc1/C=C\c1ccc(S(=O)(=O)N2CCCCC2C)cc1` (configuration not stated), the RP-LC retention time turned out to be 915 s. To `CCn1c(=O)c2c(cc(C)n2C)n(CC(=O)Nc2ccc(C)cc2Cl)c1=O` belongs 871 s; to `O=C(NCCc1noc(C2CC2)n1)c1ccc(Cl)s1`, 795 s; to `CNc1nc(N(C)C)nc(N(C)C)n1`, 602 s. The figure for `Cc1ccc(NC(=O)C2(C)Oc3cccnc3N(C)C2=O)cc1` (configuration not stated) is 845 s. To `CCCCCn1c(CN(C)C(=O)c2ccco2)nc2ccccc21` belongs 700 s. With `Cc1cnc(-c2ccncc2)n1CC1CN(S(=O)(=O)c2ccc3c(c2)CCC3)C1`, the RP-LC retention time was 651 s. Compound `CC(C)CC(=O)Nc1ccc(-n2cnc(C(=O)N3CCN(C(C)C)CC3)c2)nc1` gave an RP-LC retention time of 581 s.

On to `Nc1cc(-c2cccc(F)c2)[nH]n1`, for which the RP-LC retention time turned out to be 608 s. As for `Cc1ccccc1CN1CCCN(c2ncccc2-c2nc(C(C)C)no2)CC1`, the RP-LC retention time was 725 s. To `O=C(O)CSc1nc2ccccc2s1` belongs 795 s.

For the compound `O=C(NC1CC1)c1cn(CCC2CCCCN2C(=O)C2CC2)nn1` (configuration not stated), the RP-LC retention time turned out to be 636 s. For `Cc1cc(N2CCN(C)CC2)nc2ccc(NC(=S)N3CCN(c4ccc(F)cc4)CC3)cc12`, the RP-LC retention time was 606 s. The figure for `Cc1cccc(-c2noc(-c3sccc3NC(=O)c3ccc4nc[nH]c4c3)n2)c1` is 957 s; for `O=C(NC1CCCC1)c1ccc2c(c1)N(Cc1ccccc1)C(=O)CO2` it is 873 s; for `CCCN1C(=O)C(C)(C(=O)Nc2ccc(OCC)cc2)Oc2cccnc21` (configuration not stated) it is 966 s. Take `O=C(CSc1cc(N2CCN(c3ccccc3F)CC2)ncn1)NCCC1=CCCCC1`: the RP-LC retention time came out at 1190 s. To `COc1ccc(N2CC(c3noc(-c4ccccc4OC)n3)CC2=O)cc1` (configuration not stated) belongs 858 s; to `COc1cccc(C2Cn3nnc(-c4nc(-c5ccc(C(F)(F)F)cc5)no4)c3CO2)c1` (configuration not stated), 1270 s. Compound `CCOc1ccccc1NC(=O)Nc1cccc(-c2ccc(N3CCOCC3)nn2)c1` returned an RP-LC retention time of 670 s.

As to `Cc1ccc(S(=O)(=O)N2CCC(CCNC(=O)NCC(C)C)CC2)cc1`, the RP-LC retention time was found to be 877 s. Turning to `COC(=O)c1c(NC(=O)c2cc(C)no2)sc(C)c1C`, the RP-LC retention time came out at 1030 s. To `CCN1C(=O)C(CC(=O)NCCC(C)C)Sc2ncccc21` (configuration not stated) belongs 738 s; to `CCOc1ccnc2c1c(=O)n(CC(=O)Nc1cccc(C(F)(F)F)c1)c(=O)n2C`, 782 s; to `O=C(NCC1CCN(C(=O)c2cc3ccccc3o2)CC1)C(=O)NCC1CCCO1` (configuration not stated), 691 s. To `O=C(NCCC1CCN(C(=O)Nc2cc(F)cc(F)c2)CC1)c1ccsc1` belongs 688 s. To `Cc1noc(C)c1C1CCCN1C(=O)Cc1ccc(Cl)cc1` (configuration not stated) belongs 809 s; to `CCOC(=O)Cn1c(=O)c2c(nc3n2CCN3c2ccc(OC)cc2)n(C)c1=O`, 826 s; to `Cc1ccc(C(=O)N2CCCC2c2c(C)noc2C)cc1` (configuration not stated), 760 s. As for `COc1ccc(NC2=C(c3ccccc3)C(=O)N(Cc3ccccc3)C2=O)cc1`, the RP-LC retention time was determined as 1140 s.

In turn, `CS(=O)(=O)N1CCCC(C(=O)Nc2nc(-c3nc4ccccc4s3)cs2)C1` (configuration not stated) yielded an RP-LC retention time of 800 s. To `CCCC(=O)Nc1cnc(-c2ccc(Cl)cc2)nc1` belongs 958 s. The figure for `O=C(Nc1cccc(OCc2nnc(-c3ccc(F)cc3)o2)c1)c1ccsc1` is 920 s. The figure for `Cc1cc(C)n(CC(=O)N2CCCCCC2c2nnc(C)o2)n1` (configuration not stated) is 631 s; for `CCc1ccc(Oc2cc(N3CCC(C(=O)N4CCN(c5ccccn5)CC4)CC3)ncn2)cc1` it is 689 s; for `CCN1c2cc(Cl)ccc2C(=O)NC12CCN(C(=O)Nc1cc(C)ccc1OC)CC2` it is 916 s.

With `Cc1[nH]c(C)c(S(=O)(=O)N2CCC(C(=O)Nc3ccc(F)cc3)CC2)c1C(=O)N1CCCC1`, the RP-LC retention time is 710 s. To `CCCNc1cc(N2CCC(CCC(=O)NCc3cccc(Cl)c3)CC2)ncn1` belongs 718 s.

The compound `COCCOCC1CCN(C(=O)COc2cccc(OC)c2)CC1` returned an RP-LC retention time of 709 s. To `CCc1sc(NC(=O)c2cc3c([nH]c2=O)CCCC3=O)nc1-c1ccc(C)c(C)c1` belongs 1030 s. The figure for `O=C(COc1ccccc1F)NC1CCCCC1N1C(=O)CSC1=O` (configuration not stated) is 768 s; for `O=C(Nc1ccc(F)c(F)c1)c1cccn1Cc1noc(C2CC2)n1` it is 966 s.

`CCC(C)NC(=O)C(=O)NCc1n[nH]c(=O)c2ccccc12` (configuration not stated) displayed an RP-LC retention time of 649 s.

`O=C(CCCOc1ccc(Cl)cc1Cl)Nc1nc(-c2ccccc2)cs1`: the RP-LC retention time stood at 1210 s. To `O=C(CC1CCCCC1)N1CCN(c2nc(CN3CCCCC3)cs2)CC1` belongs 675 s; to `Cc1ccc(NC(=O)NC2CCN(c3ccc(C)c(C)c3)C2=O)c(C)c1` (configuration not stated), 949 s; to `Cc1nc2ccccc2c(=O)n1Cc1noc(-c2ccc3c(c2)OCO3)n1`, 831 s. Take `CNC(=O)[C@@H]1C[C@H](Oc2ccccc2)CN1C(=O)COc1ccccc1`: the RP-LC retention time came to 603 s. The figure for `COc1cc(NC(=O)CC2=C3CCCCC3NC2=O)cc(OC)c1` (configuration not stated) is 706 s; for `O=C(c1cnn(-c2ccccc2)n1)N1CCN(C(=O)C2CC2c2ccc(F)cc2)CC1` (configuration not stated) it is 898 s. `CCCc1nc(NCc2cc(OC)ccc2OC)ncc1C(=O)O` displayed an RP-LC retention time of 863 s. To `CC(C)(C)C(=O)N1CC(c2nc(-c3ccc(F)cc3)no2)C2(CCOCC2)C1` (configuration not stated) belongs 964 s. To `CC(C)CCNC(=O)c1cccc2c1CCN2C(=O)C1CC1` belongs 831 s; to `CCOCCCNC(=O)Cn1c(=O)c2cccn2c2ccc(F)cc21`, 712 s; to `CS(=O)(=O)N1CCC(C(=O)NCc2ccsc2)CC1`, 616 s. To `Cc1cccc(NC(=O)CN2CCC(COCc3ccccc3)CC2)c1C` belongs 610 s; to `Cc1noc(C)c1CN1CCN(C(=O)c2cc(-c3ccco3)on2)CC1`, 572 s.

For the compound `CCCOc1ccc(-c2csc(NC(=O)CN3C(=O)CCC3=O)n2)cc1`, the RP-LC retention time was determined as 816 s. Compound `Cc1csc(-n2nc(C)c(CC(=O)Nc3ccc(F)cc3)c2C)n1` showed an RP-LC retention time of 950 s.

Compound `COCc1nnc(NC(=O)C2CCN(C(=O)c3ccccc3Cl)CC2)s1` showed an RP-LC retention time of 670 s. In turn, `COc1ccc(C(=O)N2CCC(n3c(-c4ccoc4)nc4cccnc43)C2)cc1F` (configuration not stated) returned an RP-LC retention time of 714 s. The figure for `CCc1cccc(C)c1NC(=O)Cn1nc2c3ccccc3ncn2c1=O` is 705 s; for `Cc1noc(-c2ccc(OC3CN(C(=O)NCc4ccc(F)cc4)C3)cc2)n1` it is 831 s; for `CC(C)N1CCN(c2ccc3nnc(C4CCC4)n3n2)CC1` it is 548 s. To `COC(=O)c1ccc2c(=O)n(CCc3ccccc3)c(N3CCC(C(N)=O)CC3)nc2c1` belongs 774 s; to `Cc1cccc(N2CCN(S(=O)(=O)c3ccc(-c4nnc(C5CCC5)o4)o3)CC2)c1`, 1140 s. To `COC(=O)c1ccc2c(=O)n(-c3cc(OC)cc(OC)c3)c(N3CCSCC3)nc2c1` belongs 983 s; to `Cc1cc(OCC(=O)N2CCCC2)nc(-c2ccc(Cl)cc2)n1`, 937 s. The compound `CCNC(=O)CCc1nc2ccccc2n(CC(=O)NCCc2ccc(Cl)cc2)c1=O` displayed an RP-LC retention time of 773 s.

`CCCN1C(=O)COc2ccc(-c3noc(-c4ccccc4Cl)n3)cc21` came in with an RP-LC retention time of 1240 s. Compound `CNC(=O)c1ccc(C)c(-n2c(C)cc(OCc3ccc(F)cc3F)c(Br)c2=O)c1` yielded an RP-LC retention time of 818 s. The figure for `O=C(NC1(c2nc(-c3cccnc3)no2)CCCCC1)c1ccc(F)c(F)c1` is 963 s; for `O=C(NCc1ccc2c(c1)OCO2)C1CCCN(c2nccn3nc(-c4ccc(F)cc4)cc23)C1` (configuration not stated) it is 872 s; for `O=C(Cc1csc2nc(-c3cccc(Br)c3)cn12)Nc1cccc(F)c1` it is 1010 s.
